Assay in all cases: Mammalian 2-hybrid assay (VDR-coregulator interaction, HepG2)
Type in all cases: cell-based
Common to all, as to settings: 100 μM LCA

One experiment concerns the target T1, Zebrafish VDRα (Danio rerio, UniProt Q9PTN2).
T1 construct: 89.7 ng/well of full-length pSG5-VDR was co-transfected; expressed in transfected cells; host or cells: HepG2
T1 sequence (Q9PTN2 1-453): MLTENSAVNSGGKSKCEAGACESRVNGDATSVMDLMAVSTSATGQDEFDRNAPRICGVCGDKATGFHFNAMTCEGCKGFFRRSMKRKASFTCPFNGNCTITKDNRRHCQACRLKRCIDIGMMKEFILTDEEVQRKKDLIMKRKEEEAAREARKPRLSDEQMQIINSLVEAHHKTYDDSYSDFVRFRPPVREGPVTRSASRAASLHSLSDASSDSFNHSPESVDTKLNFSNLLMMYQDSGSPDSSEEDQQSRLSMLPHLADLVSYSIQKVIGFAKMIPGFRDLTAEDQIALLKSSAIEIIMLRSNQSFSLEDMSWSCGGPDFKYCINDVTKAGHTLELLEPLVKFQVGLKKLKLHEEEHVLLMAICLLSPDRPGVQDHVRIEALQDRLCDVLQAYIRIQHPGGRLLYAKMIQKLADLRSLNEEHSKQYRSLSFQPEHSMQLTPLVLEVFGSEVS
From the text:
(§1) Prey constructs included full-length VDRs fused to the herpes simplex VP16 activation domain (pVP16-VDR). Bait constructs consisted of either full-length wild-type human RXR (pM-RXRWT), a truncated human RXR mutant (pM-RXRAF2), or the defined NR box of each member of the SRC/p160 family (pM-SRC1_241-386, pM-GRIP1_479-767, or pM-ACTR392-1005) fused to the yeast Gal4 DNA-binding domain. Reporters included the Gal4 luciferase reporter (5xGal4-TATA-Luc) and pRL-CMV as an internal luciferase control.
(§2) HepG2 cells were seeded into 96-well tissue culture plates as described above and transfected with Lipofectamine 2000 the following day. Each well received 33.6 ng pVP16-VDR, 33.6 ng pM-coregulator (where indicated), 126.6 ng 5XGal4-TATA-Luc, and 3 ng pRL-CMV. […] Positive controls were treated with 1,25D3 and vehicle controls were treated with ethanol. Luciferase activity was measured 24 hours post-exposure using the Dual-Glo Luciferase Assay System described above. Raw luciferase data were normalized to the pRL-CMV luciferase control. VDR-coregulator response was normalized to the pVP16-VDR in the absence of bait constructs. Results were analyzed using a two-way ANOVA followed by Bonferroni’s multiple comparisons test in Prism (GraphPad Inc, San Diego, CA). All experiments were replicated 3 times and conducted as groups of 4 replicate wells.

Another experiment deals with Medaka VDRα (Oryzias latipes, UniProt B2CCA0).
Sequence of Medaka VDRα (B2CCA0 entry or part of it, one chain of several): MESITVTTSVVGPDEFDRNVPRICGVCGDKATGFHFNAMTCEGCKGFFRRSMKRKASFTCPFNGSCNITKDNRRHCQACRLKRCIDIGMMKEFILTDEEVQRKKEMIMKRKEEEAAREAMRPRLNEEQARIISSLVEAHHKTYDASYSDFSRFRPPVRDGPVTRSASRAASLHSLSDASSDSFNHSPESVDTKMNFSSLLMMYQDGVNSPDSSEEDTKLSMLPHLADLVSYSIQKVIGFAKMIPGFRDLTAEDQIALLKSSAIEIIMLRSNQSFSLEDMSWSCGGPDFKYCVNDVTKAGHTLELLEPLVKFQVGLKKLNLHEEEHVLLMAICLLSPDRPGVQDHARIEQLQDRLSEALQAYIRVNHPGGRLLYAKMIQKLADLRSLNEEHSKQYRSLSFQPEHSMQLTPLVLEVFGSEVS
Description: as §1, §2

The next experiment has as its target T2, Human VDR (Homo sapiens, UniProt P11473).
T2 sequence (P11473 1-427): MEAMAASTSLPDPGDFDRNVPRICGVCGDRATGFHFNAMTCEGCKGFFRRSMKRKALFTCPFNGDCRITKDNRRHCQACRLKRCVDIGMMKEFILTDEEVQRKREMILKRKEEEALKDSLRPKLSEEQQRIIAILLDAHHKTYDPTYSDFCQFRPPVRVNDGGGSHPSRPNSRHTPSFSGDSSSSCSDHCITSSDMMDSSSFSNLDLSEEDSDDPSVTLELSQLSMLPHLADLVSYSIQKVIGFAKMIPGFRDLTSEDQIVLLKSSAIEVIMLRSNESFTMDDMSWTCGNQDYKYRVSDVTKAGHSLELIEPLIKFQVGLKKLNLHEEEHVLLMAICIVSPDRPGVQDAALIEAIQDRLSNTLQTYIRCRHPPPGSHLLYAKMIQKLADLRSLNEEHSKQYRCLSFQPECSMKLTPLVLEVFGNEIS
Description: as §1, §2

The target in a further experiment is T3, Bichir VDR (Polypterus senegalus, UniProt A0A088GJ14).
T3 sequence (A0A088GJ14 1-421): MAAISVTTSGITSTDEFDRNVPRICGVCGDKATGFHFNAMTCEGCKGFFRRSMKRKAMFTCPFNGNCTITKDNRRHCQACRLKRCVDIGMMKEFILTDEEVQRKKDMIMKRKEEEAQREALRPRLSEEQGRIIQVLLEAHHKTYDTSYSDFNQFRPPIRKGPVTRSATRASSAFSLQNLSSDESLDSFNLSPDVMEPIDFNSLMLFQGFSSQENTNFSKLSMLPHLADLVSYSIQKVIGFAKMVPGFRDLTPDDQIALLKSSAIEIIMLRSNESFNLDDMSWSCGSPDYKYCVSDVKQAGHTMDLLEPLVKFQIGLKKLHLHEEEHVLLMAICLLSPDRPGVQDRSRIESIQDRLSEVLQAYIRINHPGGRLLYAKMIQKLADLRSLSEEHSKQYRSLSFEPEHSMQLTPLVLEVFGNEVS
T3 sequence (P19793 1-462 partner): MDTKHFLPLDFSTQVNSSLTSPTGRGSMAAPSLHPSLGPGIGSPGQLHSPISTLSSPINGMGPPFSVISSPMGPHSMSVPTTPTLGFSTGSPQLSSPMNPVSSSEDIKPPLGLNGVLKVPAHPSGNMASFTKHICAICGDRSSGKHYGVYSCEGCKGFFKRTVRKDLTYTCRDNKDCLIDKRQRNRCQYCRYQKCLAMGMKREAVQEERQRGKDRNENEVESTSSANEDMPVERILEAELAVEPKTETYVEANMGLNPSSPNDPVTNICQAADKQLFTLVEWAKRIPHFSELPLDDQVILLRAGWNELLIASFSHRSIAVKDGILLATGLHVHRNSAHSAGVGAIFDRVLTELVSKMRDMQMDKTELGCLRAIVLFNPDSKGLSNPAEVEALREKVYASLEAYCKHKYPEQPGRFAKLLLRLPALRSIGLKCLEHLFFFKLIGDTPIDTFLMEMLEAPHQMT
Description: as §1, §2

For `C[C@H](CCC(=O)O)[C@H]1CC[C@H]2[C@@H]3CC[C@@H]4C[C@H](O)CC[C@]4(C)[C@H]3CC[C@]12C` [LCA, 5β-cholanic acid-3α-ol], the VDR-SRC1 interaction result on Zebrafish VDRα (absence of cotransfected RXRWT) is “successfully recruited SRC1”; at Zebrafish VDRα (cotransfection of RXRWT), “strong VDR-SRC1 interactions”; on Medaka VDRα (cotransfection of RXRWT), “strong VDR-SRC1 interactions”; on Human VDR (absence of cotransfected RXRWT) it was “successfully recruited SRC1”; on Human VDR (cotransfection of RXRWT) it was “strong VDR-SRC1 interactions”. In addition, the “VDR-RXRWT interaction (heterodimerization)” value at Zebrafish VDRα (bait human RXRWT) was “Robust and significant VDR-RXRWT interactions”; at Medaka VDRα (bait human RXRWT), “Robust and significant VDR-RXRWT interactions”; at Human VDR (bait human RXRWT), “Robust and significant VDR-RXRWT interactions”; at Bichir VDR (bait human RXRWT, presence and absence of SRC1), “not observed”. For the same compound, the VDR-SRC/p160 coactivator interaction result at Bichir VDR (any of the SRC/p160 coactivators) is “No protein-protein interaction was observed”.

These data come from publication PMC5152921, “Evolutionary and Functional Diversification of the Vitamin D Receptor-Lithocholic Acid Partnership” (PLoS ONE, 2016).
